Results from US7067520B2, “Preventive or therapeutic medicines for diabetes containing fused-heterocyclic compounds or their salts” (Ishihara Sangyo Kaisha, Ltd., priority 2000, dated 2006).

| melting point | SMILES |
| --- | --- |
| > 280 °C | CSc1nc2ccnn2c(NC(C)=O)c1C#N [Compound No. 7] |
| 194 °C | CSc1nc2ccnn2c(OCc2ccccc2)c1C#N [Compound No. 51, 7-benzyloxy-5-methylthiopyrazolo[1,5-a]pyrimidine-6-carbonitrile] |
| 110 °C | CSc1nc2ccnn2c(NCc2ccco2)c1C#N [Compound No. 78, 7-furfurylamino-5-methylthiopyrazolo[1,5-a]pyrimidine-6-carbonitrile] |
| > 240 °C | CSc1nc2ccnn2c(N)c1C#N [compound 1, 7-amino-5-methylthiopyrazolo[1,5-a]pyrimidine-6-carbonitrile] |
| 139 °C | CSc1nc2ccnn2c(N(Cc2ccccn2)Cc2ccccn2)c1C#N [compound 6] |
| 63 to 64 °C | CSc1nc2ccnn2c(NCOCc2ccccc2)c1C#N [compound 10] |
| 107 °C | CSc1nc2ccnn2c(NCCc2ccccc2)c1C#N [compound 12] |
| 184 to 185 °C | CCOC(=O)CNc1c(C#N)c(SC)nc2ccnn12 [compound 13] |
| 215 °C | CSc1nc2ccnn2c(NCc2ccc([N+](=O)[O-])cc2)c1C#N [compound 16] |
| 212 to 213 °C | CSc1nc2ccnn2c(NCC(=O)c2ccccc2)c1C#N [compound 18] |
| 87 to 88 °C | CSc1nc2ccnn2c(NCCC(C)C)c1C#N [compound 19] |
| 171 °C | COC(=O)c1ccc(CNc2c(C#N)c(SC)nc3ccnn23)cc1 [compound 23] |
| 195 °C | CSc1nc2ccnn2c(NCc2cccc3ccccc23)c1C#N [compound 30] |
| 167 °C | CSc1nc2ccnn2c(NCc2ccc(Cl)cc2)c1C#N [compound 31] |
| 155 °C | CSc1nc2ccnn2c(NCc2cccc(Cl)c2)c1C#N [compound 32] |
| 160 °C | CSc1nc2ccnn2c(NCc2ccccc2Cl)c1C#N [compound 33] |
| 188 °C | CSc1nc2ccnn2c(N=Cc2ccccc2)c1C#N [compound 34] |
| > 250 °C | CSc1nc2nc(SC)c(C#N)c(N)n2n1 [compound 35] |
| 154 °C | CSc1nc2nc(SC)c(C#N)c(NCc3ccccc3)n2n1 [compound 36] |
| 230 to 233 °C | CSc1nc2nc(SC)c(C#N)c(NCc3ccncc3)n2n1 [compound 38] |
| 133 °C | CSc1nc(NCc2ccccc2)n2nccc2n1 [compound 39] |
| > 250 °C | CSc1nc2ccnn2c(N)c1C#N [compound 41] |
| 179 °C | CSc1nc2nccn2c(NCc2ccccc2)c1C#N [compound 42] |

| melting point | SMILES |
| --- | --- |
| 233 °C | CSc1nc2cc(-c3ccccc3)nn2c(N)c1C#N [compound 44] |
| > 250 °C | CSc1nc2nc3ccccc3n2c(N)c1C#N [compound 45] |
| > 250 °C | CSc1nc2ccnn2c(O)c1C#N [compound 49, 7-hydroxy-5-methylthiopyrazolo[1,5-a]pyrimidine-6-carbonitrile] |
| > 250 °C | CSc1nc2c(Br)cnn2c(N)c1C#N [compound 54] |
| 184 °C | CSc1nc2c(Br)cnn2c(NCc2ccccc2)c1C#N [compound 55] |
| 137 °C | COc1ccc(CNc2c(C#N)c(SC)nc3ccnn23)cc1 [compound 56] |
| 230 to 233 °C | CSc1nc2ccnn2c(N)c1S(C)(=O)=O [compound 58] |
| 175 °C | C#CCNc1c(S(C)(=O)=O)c(SC)nc2ccnn12 [compound 59] |
| 163 to 164 °C | CSc1nc2ccnn2c(NCc2ccccc2)c1S(C)(=O)=O [compound 61] |
| 201 to 202 °C | CSc1nc2ccnn2c(Cl)c1C#N [compound 62, 7-chloro-5-methylthiopyrazolo[1,5-a]pyrimidine-6-carbonitrile] |
| 195 to 196 °C | CSc1nc2ccnn2c(NCc2ccncc2)c1S(C)(=O)=O [compound 63] |
| > 240 °C | CCSc1nc2ccnn2c(N)c1C#N [compound 66] |
| 112 to 113.4 °C | CCSc1nc2ccnn2c(NCc2ccccc2)c1C#N [compound 67] |
| 245.6 to 245.9 °C | N#Cc1c(SCc2ccccc2)nc2ccnn2c1N [compound 69] |
| 121 to 122.2 °C | N#Cc1c(SCc2ccccc2)nc2ccnn2c1NCc1ccccc1 [compound 70] |
| 258.5 to 259 °C | C=CCSc1nc2ccnn2c(N)c1C#N [compound 75] |
| 178.8 to 179.8 °C | C=CCSc1nc2ccnn2c(NCc2ccncc2)c1C#N [compound 76] |
| 90 to 91.5 °C | C=CCSc1nc2ccnn2c(NCc2ccccc2)c1C#N [compound 77] |
| 260 to 263 °C | CSc1nc2ccnn2c(Nc2ccncc2)c1C#N [compound 81] |
| 207 °C | CSc1nc2ccnn2c(NCC#N)c1C#N [compound 84] |
| > 250 °C | N#Cc1c(-c2ccccc2)nc2ccnn2c1N [compound 85] |
| 120 to 122 °C | N#Cc1c(-c2ccccc2)nc2ccnn2c1NCc1ccccc1 [compound 86] |
| 242 °C | N#Cc1c(Cc2ccccc2)nc2ccnn2c1N [compound 87] |

| melting point | SMILES |
| --- | --- |
| 163 °C | N#Cc1c(Cc2ccccc2)nc2ccnn2c1NCc1ccccc1 [compound 88] |
| 199 to 201 °C | N#Cc1c(-c2ccccc2)nc2ccnn2c1NCc1ccncc1 [compound 89] |
| 195 to 198 °C | N#Cc1c(Cc2ccccc2)nc2ccnn2c1NCc1ccncc1 [compound 90] |
| > 250 °C | N#Cc1c(C2CCCCC2)nc2ccnn2c1N [compound 91] |
| 206 °C (dec.) | C#CCSc1nc2ccnn2c(N)c1C#N [compound 94] |
| 142.2 to 144.2 °C | C#CCSc1nc2ccnn2c(NCc2ccccc2)c1C#N [compound 95] |
| 208.5 to 208.7 °C | C#CCSc1nc2ccnn2c(NCc2ccncc2)c1C#N [compound 96] |
| 270.5 to 271.3 °C | N#Cc1c(SC2CCCC2)nc2ccnn2c1N [compound 103] |
| 115.8 to 116.6 °C | N#Cc1c(SC2CCCC2)nc2ccnn2c1NCc1ccccc1 [compound 104] |
| 214 to 216 °C (dec.) | COCSc1nc2ccnn2c(N)c1C#N [compound 106] |
| 137.4 to 141.4 °C | COCSc1nc2ccnn2c(NCc2ccccc2)c1C#N [compound 107] |
| 117 to 118 °C | CSc1nc2cccn2c(NC2CCCCC2)c1C#N [compound 109] |
| 242 to 243.8 °C | CCC(CC)Sc1nc2ccnn2c(N)c1C#N [compound 113] |
| 107 to 108.3 °C | CCC(CC)Sc1nc2ccnn2c(NCc2ccccc2)c1C#N [compound 114] |
| 129 to 133.4 °C | CCC(CC)Sc1nc2ccnn2c(NCc2ccncc2)c1C#N [compound 115] |
| 130.5 to 133.5 °C | CCOCSc1nc2ccnn2c(NCc2ccccc2)c1C#N [compound 117] |
| 105 to 113 °C | COC(=O)c1c(SC)nc2ccnn2c1Cl [compound 119] |
| 84.5 to 85.5 °C | COC(=O)c1c(SC)nc2ccnn2c1NC1CCCC1 [compound 123] |
| 136.5 to 138.5 °C | CSc1nc2ccnn2c(NCc2ccccc2)c1[N+](=O)[O-] [compound 125] |
| 132 to 134 °C | CSc1nc2ccnn2c(NC2CCCC2)c1[N+](=O)[O-] [compound 127] |
| 162.7 to 164 °C | CSc1nc2ccnn2c(NCc2ccccc2)c1C(=O)O [compound 128] |
| 155 to 157 °C | CSc1nc2ccnn2c(NCc2ccncc2)c1C(=O)O [compound 129] |
| 162.5 to 164.5 °C | CSc1nc2ccnn2c(Nc2cccc(C#N)c2)c1C(=O)O [compound 134] |

| melting point | SMILES |
| --- | --- |
| 52 to 54 °C | CSc1nc2ccnn2c(Cl)c1C(=O)OCc1ccccc1 [compound 146] |
| 122 to 123 °C | CSc1nc2ccnn2c(NCc2ccncc2)c1C(=O)OCc1ccccc1 [compound 147] |
| 141 to 142 °C | CSc1nc2ccnn2c(Nc2cccc(C#N)c2)c1C(=O)OCc1ccccc1 [compound 148] |
| 285 to 288 °C (dec.) | CSc1nc2ccnn2c(Nc2ccc(S(N)(=O)=O)cc2)c1C#N [compound 149] |
| 303 to 306 °C (dec.) | CSc1nc2ccnn2c(Nc2ccc(S(=O)(=O)N(C)C)cc2)c1C#N [compound 150] |
| 205 to 208 °C | CSc1nc2ccnn2c(Nc2cccc(S(=O)(=O)N(C)C)c2)c1C#N [compound 151] |
| > 280 °C | CSc1nc2ccnn2c(Nc2cccc(S(N)(=O)=O)c2)c1C#N [compound 152] |
| 193 to 195 °C | COc1nc2ccnn2c(NCc2ccncc2)c1C#N [compound 153] |
| 192 to 194 °C | COC(=O)c1c(SC)nc2ccnn2c1O [compound 155] |
| 118 to 120 °C | CSc1nc2ccnn2c(N2CCC(C)CC2)c1C#N [compound 160] |
| 161 to 162 °C | CSc1nc2ccnn2c(Nc2cccc(Cl)c2)c1C#N [compound 162] |
| 146 to 148 °C | CSc1nc2ccnn2c(Nc2ccc3c(c2)CCC3)c1C#N [compound 165] |
| 140 to 141 °C | CSc1nc2ccnn2c(Nc2ccc3ncsc3c2)c1C#N [compound 166] |
| 243 to 244 °C | CSc1nc2ccnn2c(Nc2ccc(OC(F)(F)F)cc2)c1C#N [compound 167] |
| 214 to 215 °C | COc1ccc(Nc2c(C#N)c(SC)nc3ccnn23)cc1 [compound 169] |
| 250 to 256 °C | CSc1nc2ccnn2c(Nc2ccc(O)cc2)c1C#N [compound 170] |
| 205 to 206 °C | COC(=O)c1ccc(Nc2c(C#N)c(SC)nc3ccnn23)cc1 [compound 171] |
| 191 to 192 °C | CCOC(=O)c1ccc(Nc2c(C#N)c(SC)nc3ccnn23)cc1 [compound 175] |
| > 250 °C | CSc1nc2ccnn2c(Nc2ccc(C(=O)O)cc2)c1C#N [compound 176] |
| > 250 °C | CSc1nc2ccnn2c(NOc2ccccc2)c1C#N [compound 179] |
| 142 °C | CSc1nc2ccnn2c(NCc2cccs2)c1C#N [compound 180] |
